Results as given in patent US9261497B2, “Method of treating cancer with modulators of SCFSkp2” (New York University, priority 2012, dated 2016).

Assays:
Q52L-Cks1 mutant = molecular target: T1, Q52L-Cks1 mutant (Homo sapiens, UniProt P61024+Q13309, Q52L); test: In vitro ubiquitylation assay with Q52L-Cks1 mutant; assay type: biochemical; conditions: 50 μM compound
T1 construct: made in house; host or cells: cell-free: rabbit reticulocyte lysate (TNT T7 Coupled Reticulocyte Lysate System, Promega) from pcDNA3.1 plasmids
T1 sequence (Q13309 whole entry): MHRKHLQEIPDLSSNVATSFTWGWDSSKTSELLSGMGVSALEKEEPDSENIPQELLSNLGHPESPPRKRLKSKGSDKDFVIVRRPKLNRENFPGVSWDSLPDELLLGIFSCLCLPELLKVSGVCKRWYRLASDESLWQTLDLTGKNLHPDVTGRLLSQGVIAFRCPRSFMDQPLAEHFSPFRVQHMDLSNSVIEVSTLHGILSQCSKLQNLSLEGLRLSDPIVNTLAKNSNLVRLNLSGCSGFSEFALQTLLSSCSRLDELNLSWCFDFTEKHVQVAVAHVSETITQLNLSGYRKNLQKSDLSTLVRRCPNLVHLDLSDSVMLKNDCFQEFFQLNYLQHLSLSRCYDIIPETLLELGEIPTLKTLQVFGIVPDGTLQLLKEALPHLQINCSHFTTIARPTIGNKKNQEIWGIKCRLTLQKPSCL
T1 sequence (P61024 whole entry Q52L): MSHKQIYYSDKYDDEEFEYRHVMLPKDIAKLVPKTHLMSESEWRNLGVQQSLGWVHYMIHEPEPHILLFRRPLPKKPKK
T1 sequence (P63208 whole entry partner): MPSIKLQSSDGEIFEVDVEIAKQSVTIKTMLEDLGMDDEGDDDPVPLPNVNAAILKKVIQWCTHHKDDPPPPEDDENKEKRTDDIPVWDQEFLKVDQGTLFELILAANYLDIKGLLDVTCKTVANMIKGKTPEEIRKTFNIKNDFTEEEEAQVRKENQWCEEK
T1 sequence (Q13616 whole entry partner): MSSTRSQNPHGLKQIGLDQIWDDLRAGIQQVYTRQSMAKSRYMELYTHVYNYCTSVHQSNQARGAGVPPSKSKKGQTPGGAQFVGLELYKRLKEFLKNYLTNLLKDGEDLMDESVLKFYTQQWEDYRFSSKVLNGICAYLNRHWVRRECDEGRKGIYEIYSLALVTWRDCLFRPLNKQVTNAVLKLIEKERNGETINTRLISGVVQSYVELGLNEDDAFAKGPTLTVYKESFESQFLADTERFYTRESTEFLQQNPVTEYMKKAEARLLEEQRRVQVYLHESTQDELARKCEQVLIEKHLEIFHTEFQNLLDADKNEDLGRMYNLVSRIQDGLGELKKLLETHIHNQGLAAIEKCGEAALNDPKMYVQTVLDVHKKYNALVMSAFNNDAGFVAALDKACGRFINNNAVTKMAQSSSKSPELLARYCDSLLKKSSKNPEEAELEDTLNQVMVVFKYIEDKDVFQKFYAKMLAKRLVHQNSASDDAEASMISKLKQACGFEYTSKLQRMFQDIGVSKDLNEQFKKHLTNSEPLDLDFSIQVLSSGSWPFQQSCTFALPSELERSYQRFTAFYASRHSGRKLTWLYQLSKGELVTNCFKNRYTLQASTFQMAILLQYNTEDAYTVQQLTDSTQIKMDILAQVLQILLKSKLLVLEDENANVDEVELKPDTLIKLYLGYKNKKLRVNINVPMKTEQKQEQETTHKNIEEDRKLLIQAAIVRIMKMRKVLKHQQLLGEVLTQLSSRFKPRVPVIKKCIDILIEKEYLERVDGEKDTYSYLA
T1 sequence (P62877 whole entry partner): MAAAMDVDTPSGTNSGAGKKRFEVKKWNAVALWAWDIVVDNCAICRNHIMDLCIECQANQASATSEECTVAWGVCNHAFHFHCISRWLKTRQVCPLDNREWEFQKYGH
From the text: To interrogate the compound-contacting residues on the Skp2-Cks1 interface, mutants of Skp2 and Cks1 were designed based on the in silico dockings. The predicted electrostatic interactions between the positive charge on the NH2 side group in Q52-Cks1 with the COOH-group in C1 and C16 should be lost when mutated to a neutral-charge leucine (FIG. 7B). […] This confirms that the Q52-Cks1 residue is important for only C1 and C16 activity, as predicted by the in silico dockings. […] The Skp2-R294A and the Cks1-R44A/H mutants lacked ubiquitylation activity (FIG. 7C) preventing the interrogation of these residues' contribution to the activity of C2 and C20. […] Thus, the predicted three-dimensional mode of interaction of the compounds with Skp2-Cks1 was validated at a chemical and protein level.
(§1) In vitro reconstituted assays were performed as previously described (Dorrello et al., “S6K1- and betaTRCP-mediated Degradation of PDCD4 Promotes Protein Translation and Cell Growth,” Science 314:467-471 (2006), which is hereby incorporated by reference in their entirety) with the exceptions of the use of (1) unlabeled proteins (wild-type and mutant Skp2 and Cks1, p27, Flag-βTrCP, and HA-PDCD4) generated by in vitro transcription-translation (TNT T7 Coupled Reticulocyte Lysate System, Promega); (2) chain elongation with non-methylated ubiquitin; and (3) immunoblotting to detect poly-ubiquitylation. The following reagents were obtained from Boston Biochem: UBE1, His-UbcH3, His-UbcH5c, Ubiquitin, and Ubiquitin Aldehyde. Additional reagents include CDK2/CyclinE1 (Sigma-Aldrich), S6K (Invitrogen), Okadaic acid (Sigma), and DMSO (Sigma-Aldrich). For ubiquitin charging, UBE1 (100 nM) and His-UbcH3 (10 ng/μl) were incubated with ubiquitin (2.5 μg/μl), ATP (2 mM), and 10 μM […] of inhibitors or Vehicle control for 60 min at 30° C. Reactions were stopped in nondenaturing 2× Sample Buffer, with the addition of 10% Beta-mercaptoethanol as indicated, and analyzed by Western blotting.

MDM2 = molecular target: T2, MDM2 (Homo sapiens, UniProt Q00987); test: MDM2 p53 in vitro ubiquitylation counter-screen; assay type: biochemical; conditions: 50 μM inhibitor
T2 construct: purchased Boston Biochem
T2 sequence (Q00987 whole entry, species assumed): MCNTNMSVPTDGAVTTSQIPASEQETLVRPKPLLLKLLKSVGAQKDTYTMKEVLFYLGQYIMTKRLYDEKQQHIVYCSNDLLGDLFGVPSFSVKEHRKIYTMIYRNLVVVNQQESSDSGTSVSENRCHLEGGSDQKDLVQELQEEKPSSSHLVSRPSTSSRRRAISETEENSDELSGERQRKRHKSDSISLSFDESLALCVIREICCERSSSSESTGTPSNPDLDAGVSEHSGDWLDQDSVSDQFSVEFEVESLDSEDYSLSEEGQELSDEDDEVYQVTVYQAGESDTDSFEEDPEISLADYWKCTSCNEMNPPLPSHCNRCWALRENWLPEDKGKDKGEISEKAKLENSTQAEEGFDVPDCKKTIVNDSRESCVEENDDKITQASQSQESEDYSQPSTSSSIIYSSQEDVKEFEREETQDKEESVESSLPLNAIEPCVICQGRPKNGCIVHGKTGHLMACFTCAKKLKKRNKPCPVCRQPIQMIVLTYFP
Description: p53 ubiquitylation was carried out with the p53 Ubiquitylation Kit (Boston Biochem) following manufacturers protocol. Immunoblotting was performed using mouse monoclonal p53 (Santa Cruz) and rabbit polyclonal MDM2 (Santa Cruz).

[1] = system: p27 in 501 Mel, SK-MEL-147, and SK-MEL-173; test: Immunoblot of steady state protein levels in metastatic melanoma cell lines; assay type: cell-based, human; conditions: 10 μM inhibitor; melanoma cells
Description: 501 Mel cells were also treated with MG-132 (a proteasome inhibitor) to confirm that p27 and p21 induction were responsive to known UPS inhibitors (FIG. 4A, right). […] Thus, treatment of cells with inhibitors targeting the Skp2-Cks1 interface induces protein levels of specific Skp2-Cks1 substrates.
Whole cell extracts were prepared and immunoblotted as previously described Dorrello et al., “S6K1- and betaTRCP-mediated Degradation of PDCD4 Promotes Protein Translation and Cell Growth,” Science 314:467-471 (2006), which is hereby incorporated by reference in its entirety. For knockdown of Skp2 or p27, shRNAs were induced with 2 ng/ml doxycycline for 48 hours, with the last 16 hours co-treated with 0.1% Vehicle or 10 μM inhibitors as indicated. For cycloheximide chase, cells were pretreated 16 h with 0.1% Vehicle or 10 μM inhibitors, followed by 20 ng/ml cycloheximide (Sigma) and whole cell extracts collected for each time point. […] Scanning densitometry was performed on immunoblots using Image J software. For cell cycle analysis, cells were treated with 0.1% Vehicle or 10 μM inhibitors for 16 h. 1×10^6 cells were fixed in 70% ethanol for 2 h, treated with 200 μg/ml RNase A (Invitrogen) for 30 minutes, and stained with 20 μg/ml Propidium Iodine (Sigma). All samples were assayed in triplicates. Signal was detected using the Becton Dickson LSRII flow cytometer and cell cycle profiles were analyzed with FloJo.

SCF-Skp2 (Skp2-Cks1) = molecular target: T3, SCF-Skp2 (Skp2-Cks1) (Homo sapiens, UniProt P61024+Q13309); test: In vitro ubiquitylation assay, Skp2-mediated p27 ubiquitylation (Wild-Type Cks1); assay type: biochemical; conditions: 50 μM compound, immunoblot for p27-(Ub)n
T3 construct: made in house; host or cells: cell-free: rabbit reticulocyte lysate (TNT T7 Coupled Reticulocyte Lysate System, Promega) from pcDNA3.1 plasmids
T3 sequence (Q13309 whole entry): as the sequence (Q13309 whole entry) above
T3 sequence (P61024 whole entry): as the sequence (P61024 whole entry Q52L) above, with L52Q counted along it
T3 sequence (P63208 whole entry partner): as the sequence (P63208 whole entry partner) above
T3 sequence (Q13616 whole entry partner): as the sequence (Q13616 whole entry partner) above
T3 sequence (P62877 whole entry partner): as the sequence (P62877 whole entry partner) above
Description: The 96 hits were tested in an in vitro ubiquitylation assay driven by in vitro transcribed/translated Skp2, Cks1, and p27 (Sitry et al., “Three Different Binding Sites of Cks1 are Required for p27-ubiquitin Ligation,” J. Biol. Chem. 277:42233-42240 (2002)). Assay sensitivity was established for various criteria (FIG. 1B): Enhanced ubiquitylation with Cks1 (lane 2), kinase activity requirement (lane 3), and responsiveness to known inhibitors of Cullin (lane 5) or Cdk2 (lane 6) activity (Meijer et al., “Biochemical and Cellular Effects of Roscovitine, a Potent and Selective Inhibitor of the Cyclin-dependent Kinases cdc2, cdk2 and cdk5,” Eur. J. Biochem. 243:527-536 (1997); Soucy et al., “An Inhibitor of NEDD8-activating Enzyme as a New Approach to Treat Cancer,” Nature 458:732-736 (2009), which are hereby incorporated by reference in their entirety). Compounds showing at least 50% inhibition of Skp2-mediated p27 ubiquitylation (FIG. 1C) were counter-screened for inactivity against two anti-target E3 ligases: MDM2 and SCF-βTrCP (FIGS. 6A-B). Compounds C1 and C2 were identified from the primary VLS and C16 and C20 were identified from a second VLS (FIG. 2).
as §1

CyclinE/CDK2 = molecular target: T4, CyclinE/CDK2 (Homo sapiens, UniProt P24941); test: CyclinE/CDK2 kinase assay (phospho-T187 p27); assay type: biochemical; conditions: 50 μM inhibitor
T4 construct: purchased Sigma-Aldrich
Description: In vitro ubiquitylation assays were incubated with anti-HA affinity matrix (Roche) in IP buffer (50 mM Tris pH 7.6, 150 mM NaCl, 0.1% NP40, and Roche Complete EDTA-free protease tablet) for 16 h at 4° C. Beads were washed 3× with IP buffer and eluted with 2×SDS Sample Buffer (Boston Bioproducts) and 10% Beta-mercaptoethanol. For binding without ubiquitylation, HA-Skp2 IVT (10 μl) and Cks1 IVT (10 μl) were preincubated with anti-HA affinity matrix in IP buffer for 2 hours, with the addition of p27 kinase reaction (10 μl) for another 16 h incubation at 4° C. All reactions were analyzed after SDS/PAGE by western blotting. Where indicated, Skp2 and Cks1 were pretreated with 10 μM inhibitors for 30 minutes. Kinase reactions were performed with p27 IVT (10 μl) and 0.5 μg/ul CyclinE/CDK2 in kinase buffer (50 mM Tris HCL pH 7.5, 10 mM MgCl2, 2 mM ATP, 2.5 μM Okadaic Acid, and 0.6 mM DTT) at 30° C. for 1 h.

Compound | Inhibition of p27 ubiquitylation with Q52L-Cks1 (Q52L-Cks1 mutant) | MDM2 activity (p53 poly-ubiquitylation) (MDM2) | p27 protein induction [1] | Inhibition of Skp2-mediated p27 ubiquitylation (SCF-Skp2 (Skp2-Cks1)) | CyclinE/CDK2 activity (phospho-T187 p27) (CyclinE/CDK2)
O=C(O)COc1ccc(Br)cc1C=C1SC(=S)N(Cc2cccnc2)C1=O [Compound C1] | inactive | not blocked | induce p27 protein | active | not blocked
COC(=O)C1=C(C)N(c2ccc(Br)cc2)C(=O)C1=Cc1ccccc1O [Compound C2] | strongly inhibited | not blocked | induce p27 protein | strongly inhibited | not blocked
O=C(O)COc1ccc(C=C2SC(=O)N(CC(=O)c3ccc(Cl)cc3)C2=O)cc1 [Compound C16] | inactive | not blocked | induce p27 protein | active | not blocked
O=C(NN=Cc1cc(Br)cc(Br)c1O)C(=Cc1ccccc1O)NC(=O)c1ccccc1 [Compound C20] | strongly inhibited | not blocked | induce p27 protein | strongly inhibited | not blocked
